Reference: US20110289632A1, “METHYLKETONE SYNTHASE, PRODUCTION OF METHYLKETONES IN PLANTS AND BACTERIA” (The Regents of the University of Michigan, priority 2009, published 2011)

Legend:
[1] = system: 3-ketomyristoyl-ACP; assay: In vitro thioesterase activity assay; format: biochemical; conditions: 2.5 μg protein, 30 min at 23° C., then acid and heat
Description: To examine the potential thioesterase activity of ShMKS1 and ShMKS2 in vitro, we added 2.5 μg of each protein to a 500 μL solution of freshly prepared 3-ketomyristoyl-ACP. This protein-linked substrate was prepared using a sequential in vitro enzymatic system involving the addition of multiple starting materials and enzymes and the reaction allowed to proceed for 5 hr (see Examples, Materials, and Methods). Due to the highly unstable nature of 3-ketomyristoyl-ACP, this compound was not further purified but instead the solution in which it was synthesized was used as the “substrate solution” for qualitative in vitro thioesterase activity assays.
Aliquots of this substrate solution were incubated with buffer, ShMKS1, ShMKS2, or both ShMKS1 and ShMKS2 for 30 min at 23° C. […]
3-Ketomyristoyl-ACP was synthesized in a 500 μL reaction volume containing 1,3-bis(tris(hydroxymethyl)methylamino) propane (20 mM, pH 7.0), malonyl-CoA (0.2 mM), lauroyl-CoA (0.2 mM), ShACP (0.1 mM), EcFabD (10 μg) and MtFabH (10 μg). […] Hexane extracts were analyzed by GC-MS as described above. The values for heat-treated samples shown in FIG. 20 were corrected for loss of methylketones during the heating step, as determined by comparisons with standards.

[2] = In vitro decarboxylase activity assay; format: biochemical; conditions: substrate 3-ketomyristic acid
Description: To examine the possible decarboxylase activity of ShMKS1 as well as ShMKS2 in vitro, we tested homogenous recombinant ShMKS1 and partially purified recombinant ShMKS2 proteins (without their transit peptides) for their ability to convert 3-ketomyristic acid into its 2-tridecanone decarboxylated product. […] In steady-state kinetic assays, ShMKS1 was determined to have a KM of 18.4±5.6 μM for 3-ketomyristic acid, with an apparent kcat of 227.9±24.1 min^−1.
A typical decarboxylase assay consisted of a 500 μL reaction solution containing ShMKS1 or ShMKS2 (2.5 μg), 3-ketomyristic acid (0.1 mM), and 1,3-bis(tris(hydroxymethyl)methylamino) propane—Na^+ (20 mM, pH 7.0). For measuring kinetic parameters, substrate concentrations ranged from 5 μM to 75 μM. Assays were performed at 23° C. for 10 min after addition of protein. […] Reaction products (5 μL) were analyzed by a modified procedure, as described in O'Maille et al (2004) A single-vial analytical and quantitative gas chromatography-mass spectrometry assay for terpene synthases. […] Product quantification was performed using total ion monitoring (TIM) mode where all ions in the mass spectrum contribute to the measured response. […] 2-Tridecanone was quantified by integration of peak areas using Enhanced Chemstation (version B.01.00, Agilent Technologies). […]

[3] = system: E. coli cells; assay: GC-MS of methylketones in spent media of E. coli cells expressing ShMKS1, ShMKS2 or ShMKS2 (D79A); format: cell-based, Escherichia coli
Description: To test if expression of either ShMKS1 or ShMKS2 (without its transit peptide) in E. coli results in the formation of 3-ketoacids, we collected spent media of bacterial cells expressing each of them (by centrifuging out the cells at the end of the incubation period), heated the spent media at 75° C. for 30 min in the presence of 1 M sulfuric acid, extracted with hexane, then injected the hexane fraction in a GC-MS. […] On the other hand, the spent medium of E. coli cells expressing ShMKS2 contained 5.6±0.32 μg/μL of total methylketones, and the amount of methylketones increased […], to 40.7±2.1 μg/μL, after the spent medium was treated with acid and heat (FIG. 17).
The coding regions of ShMKS1 and ShMKS2 (minus the transit peptide-encoding region) were each amplified by PCR and inserted into the E. coli expression vector pEXP-TOPO-CT (Invitrogen). The expression vectors were introduced into E. coli BL21 Star (DE3) cells, and gene expression was induced by the addition of 0.5 mM IPTG after the culture optical density at 600 nm had reached 0.65. After induction with IPTG and growth at 18° C. overnight, the cells expressing ShMKS1 or ShMKS2 were centrifuged at 5000 rpm for 15 minutes, and 1-mL aliquots of the spent medium were placed in individual vials for further analysis.
Aliquots (1 mL) of the spent medium of E. coli expressing ShMKS2, obtained by centrifuging the culture solution after the incubation time at 5,000 rpm for 15 min and collecting the solution without the cells, were treated in the following ways: 1. Incubated with 40 μl (3 μg) of purified MKS1 in phosphate buffer (12.5 mM NaH2PO4, 125 mM NaCl, 2 mM DTT, pH 6.8) for 2 hrs at 30° C. 3. Incubated at 75° C. for 30 min followed by 30 min at 30° C. 4. Incubated with 1 mL of 2M H2SO4 at 75° C. for 30 min followed by 30 min at 30° C. After the various treatments, 1 mL of hexane containing 5 ng/μL linalool as an internal standard was added and the resulting mixture was vortexed and centrifuged at 5000 rpm for 10 min. Two μL of the resulting extract were injected into the GC-MS for determination of methylketones. GC-MS and product analysis were performed as described by Ben-Israel et al, (2009) Multiple biochemical and morphological factors underlie the production of methylketones in tomato trichomes, Plant Physiology 151: 1952-1964.

[4] = system: E. coli BL21 cells; assay: Headspace SPME GC-MS of E. coli cultures expressing ShMKS2 or SlMKS2; format: cell-based, Escherichia coli; conditions: IPTG induction, overnight growth
Description: To investigate the biochemical activity of MKS2, the full ORFs of the wild-species allele (ShMKS2) and the cultivated allele (SlMKS2) were amplified and ligated into an E. coli expression vector (see Examples, Materials and Methods). These vectors were introduced into E. coli BL21cells and ShMKS2 or SlMKS2 expression was induced by the addition of IPTG (see Examples, Materials and Methods). After induction and overnight growth, the culture was analyzed by solid-phase microextraction (SPME) of its headspace followed by gas chromatography-mass spectrometry (GC-MS; see Examples, Materials and Methods). The major compound in the headspace of the E. coli cells expressing ShMKS2 was identified as 2TD (FIG. 8A). Lower amounts of 2UD and 2-pentadecanone were also detected, as well as the reduced alcohol forms of 2UD and 2TD (i.e., 2-undecanol and 2-tridecanol). […] The headspace also contained 2-nonanol and 2-undecanol (FIG. 8B). However, the major headspace compound produced by SlMKS2-expressing cells eluted slightly later than 2TD (peak labeled “1” in FIG. 8B, and also present at lower levels in the chromatograph in FIG. 8A).
The sequence of these cDNAs was verified and transferred into the E. coli expression vector pHis9GW following Auldridge et al. (submitted). The pHis9GW vectors carrying ShMKS2 or SlMKS2 were mobilized into E. coli […] cells, and gene expression was induced by the addition of 2 mM IPTG after the culture OD595 value had reached 0.6-0.7. After IPTG addition, ShMKS2- and SlMKS2-expressing bacterial cells were grown at 30° C. or 18° C. overnight.
After induction with IPTG and growth overnight, 1 mL of culture was placed in a glass vial at 42° C. The vial was capped with a screw cap in which a small hole had been bored. The needle of a SPME device was inserted into the vial through the hole in the cap and the fiber extended for 30 min. for volatile collection, after which the fiber was withdrawn and then injected into the GC. […]

[5] = combined heat and acid treatment
[6] = heated at 75° C. for 30 min, no sulfuric acid

For “ShMKS2: methylketone synthase 2 from Solanum habrochaites glabratum (SEQ ID NO: 4 / 25); thioesterase hydrolyzing 3-ketoacyl-ACPs”, the “amount of 2-tridecanone formed vs buffer-incubated substrate solution treated with acid and heat” value [1] was “approximately 3 fold”, the “decarboxylase activity” value [2] was “no decarboxylase activity” and the “increase of amount of methylketones after acid and heat treatment” value ([3]; acid and heat treated vs untreated spent medium) was 8 fold. The “total methylketones in spent medium” value ([3]; after spent medium was treated with acid and heat (1 M sulfuric acid, 75° C., 30 min)) was 40.7 ± 2.1 µg/µL, the “2-nonanone in spent medium” value [3, 5] was 0.95 ± 0.04 µg/µL and the “2-nonanone, fold over non-treated control” value [3, 5] was 19.1 fold. For the same substance, the “2-pentadecenone in spent medium” value [3, 5] was 5.69 ± 0.21 µg/µL, the “2-pentadecenone, fold over non-treated control” value [3, 5] was 4.4 fold and the “2-tridecanone in spent medium” value [3, 5] was 11.99 ± 0.51 µg/µL. For the same substance, the “2-tridecanone, fold over non-treated control” value [3, 5] was 4.6 fold, the “2-tridecenone in spent medium” value [3, 5] was 13.04 ± 0.63 µg/µL and the “2-tridecenone, fold over non-treated control” value [3, 5] was 11.8 fold. The “2-undecanone in spent medium” value [3, 5] was 9.33 ± 0.61 µg/µL, the “2-undecanone, fold over non-treated control” value [3, 5] was 18.3 fold and the “2-nonanone, fold over non-treated control” value ([3]; heat only) was 11.9 fold. The “2-pentadecenone, fold over non-treated control” value ([3]; heat only) was 3.0 fold, the “2-tridecanone, fold over non-treated control” value ([3]; heat only) was 3.7 fold and the “2-tridecenone, fold over non-treated control” value ([3]; heat only) was 9 fold. For the same substance, the “2-undecanone, fold over non-treated control” value ([3]; heat only) was 12.2 fold, the “2-nonanone in spent medium” value [3, 6] was 0.60 ± 0.05 µg/µL and the “2-pentadecenone in spent medium” value [3, 6] was 3.94 ± 0.54 µg/µL. The “2-tridecanone in spent medium” value [3, 6] was 9.61 ± 0.27 µg/µL, the “2-tridecenone in spent medium” value [3, 6] was 9.94 ± 0.83 µg/µL and the “2-undecanone in spent medium” value [3, 6] was 6.22 ± 0.34 µg/µL. For the same substance, the “2-nonanone in spent medium” value ([3]; untreated spent medium) was 0.05 µg/µL, the “2-pentadecenone in spent medium” value ([3]; untreated spent medium) was 1.3 µg/µL and the “2-tridecanone in spent medium” value ([3]; untreated spent medium) was 2.6 µg/µL. For the same substance, the “2-tridecenone in spent medium” value ([3]; untreated spent medium) was 1.1 µg/µL, the “2-undecanone in spent medium” value ([3]; untreated spent medium) was 0.51 µg/µL and the “total methylketones in spent medium” value ([3]; untreated spent medium) was 5.6 ± 0.32 µg/µL. The “major compound in the headspace of E. coli cells expressing the enzyme” value [4] was 2TD.

For “SlMKS2: methylketone synthase 2, cultivated tomato S. lycopersicum allele (SEQ ID NO: 3)”, the “major compound in the headspace of E. coli cells expressing the enzyme” value [4] was 2-tridecenone and the “two main MK in the headspace” value [4] was 2UD as well as 2-nonanone.
